Experimental data reported in PubChem BioAssay AID2060887 (Molecular Pharmacology Branch, DTP, NCI, 2025).

Test system: 782815-120-R-J1-PDC complex spheroid viability
Assay: Anticancer human tumor 782815-120-R-J1-PDC patient-derived colon adenocarcinoma cell line growth inhibition [RAS]
Settings: for IC50: curve of first compound; for viability, T/C: stronger effect = lower value
Summary of the method: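 Multi-cell-type spheroids: tumor cells plus HUVEC endothelial cells and mesenchymal stem cells. RAS-pathway inhibitors were combined with targeted agents, each dosed in half-log steps down from clinical Cmax, or from 10 microM when Cmax was unknown.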
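Note: spheroids exposed to compounds for 7 days before reading.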
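Throughout, for viability, T/C: 100% = DMSO vehicle control viability.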

CC(C)NCC(C(=O)N1CCN(c2ncnc3c2C(C)CC3O)CC1)c1ccc(Cl)cc1 (centres undefined) + C#Cc1c(F)ccc2cc(O)cc(-c3ncc4c(N5CC6CCC(C5)N6)nc(OCC56CCCN5CC(F)C6)nc4c3F)c12
IC50 (second compound 0.0316 µM): > 10 µM
IC50 (second compound 0.1 µM): > 10 µM
IC50 (second compound 0.316 µM): > 10 µM
IC50 (second compound 1 µM): > 10 µM
IC50 (second compound 3.16 µM): > 10 µM
IC50 (second compound 10 µM): > 10 µM
viability, T/C (second compound 0.0316 µM, first compound 0.0316 µM): 95.9%
viability, T/C (second compound 0.0316 µM, first compound 0.1 µM): 106%
viability, T/C (second compound 0.0316 µM, first compound 0.316 µM): 95.6%
viability, T/C (second compound 0.0316 µM, first compound 1 µM): 103%
viability, T/C (second compound 0.0316 µM, first compound 3.16 µM): 96.3%
viability, T/C (second compound 0.0316 µM, first compound 10 µM): 94.3%
viability, T/C (second compound 0.1 µM, first compound 0.0316 µM): 95.5%
viability, T/C (second compound 0.1 µM, first compound 0.1 µM): 104%
viability, T/C (second compound 0.1 µM, first compound 0.316 µM): 101%
viability, T/C (second compound 0.1 µM, first compound 1 µM): 98.1%
viability, T/C (second compound 0.1 µM, first compound 3.16 µM): 100%
viability, T/C (second compound 0.1 µM, first compound 10 µM): 97%
viability, T/C (second compound 0.316 µM, first compound 0.0316 µM): 109%
viability, T/C (second compound 0.316 µM, first compound 0.1 µM): 108%
viability, T/C (second compound 0.316 µM, first compound 0.316 µM): 93.5%
viability, T/C (second compound 0.316 µM, first compound 1 µM): 103%
viability, T/C (second compound 0.316 µM, first compound 3.16 µM): 96.3%
viability, T/C (second compound 0.316 µM, first compound 10 µM): 105%
viability, T/C (second compound 1 µM, first compound 0.0316 µM): 108%
viability, T/C (second compound 1 µM, first compound 0.1 µM): 113%
viability, T/C (second compound 1 µM, first compound 0.316 µM): 90.7%
viability, T/C (second compound 1 µM, first compound 1 µM): 94.6%
viability, T/C (second compound 1 µM, first compound 3.16 µM): 103%
viability, T/C (second compound 1 µM, first compound 10 µM): 103%
viability, T/C (second compound 3.16 µM, first compound 0.0316 µM): 104%
viability, T/C (second compound 3.16 µM, first compound 0.1 µM): 101%
viability, T/C (second compound 3.16 µM, first compound 0.316 µM): 93.1%
viability, T/C (second compound 3.16 µM, first compound 1 µM): 100%
viability, T/C (second compound 3.16 µM, first compound 3.16 µM): 98.3%
viability, T/C (second compound 3.16 µM, first compound 10 µM): 102%
viability, T/C (second compound 10 µM, first compound 0.0316 µM): 103%
viability, T/C (second compound 10 µM, first compound 0.1 µM): 108%
viability, T/C (second compound 10 µM, first compound 0.316 µM): 93.4%
viability, T/C (second compound 10 µM, first compound 1 µM): 101%
viability, T/C (second compound 10 µM, first compound 3.16 µM): 96.5%
viability, T/C (second compound 10 µM, first compound 10 µM): 98.4%

C=CC(=O)N1CCN(c2nc(OCC3CCCN3C)nc3c(F)c(-c4nc(N)cc(C)c4C(F)(F)F)c(Cl)cc23)C(C)C1 (centres undefined) + CCn1c(-c2cccnc2C(C)OC)c2c3cc(ccc31)N1CCOC(CC(NC(=O)C(C(C)C)N(C)C(=O)C3(F)CCN(C(=O)C#CC(C)(C)N(C)C)CC3)C(=O)N3CCCC(N3)C(=O)OCC(C)(C)C2)C1
IC50 (second compound 0.000949 µM): > 1 µM
IC50 (second compound 0.003 µM): > 1 µM
IC50 (second compound 0.00949 µM): > 1 µM
IC50 (second compound 0.03 µM): > 1 µM
IC50 (second compound 0.0949 µM): > 1 µM
IC50 (second compound 0.3 µM): > 1 µM
viability, T/C (second compound 0.000949 µM, first compound 0.00316 µM): 95.1%
viability, T/C (second compound 0.000949 µM, first compound 0.01 µM): 96%
viability, T/C (second compound 0.000949 µM, first compound 0.0316 µM): 101%
viability, T/C (second compound 0.000949 µM, first compound 0.1 µM): 83.2%
viability, T/C (second compound 0.000949 µM, first compound 0.316 µM): 94.4%
viability, T/C (second compound 0.000949 µM, first compound 1 µM): 94.5%
viability, T/C (second compound 0.003 µM, first compound 0.00316 µM): 91.3%
viability, T/C (second compound 0.003 µM, first compound 0.01 µM): 97%
viability, T/C (second compound 0.003 µM, first compound 0.0316 µM): 101%
viability, T/C (second compound 0.003 µM, first compound 0.1 µM): 94.8%
viability, T/C (second compound 0.003 µM, first compound 0.316 µM): 93.3%
viability, T/C (second compound 0.003 µM, first compound 1 µM): 94.7%
viability, T/C (second compound 0.00949 µM, first compound 0.00316 µM): 87.2%
viability, T/C (second compound 0.00949 µM, first compound 0.01 µM): 97.2%
viability, T/C (second compound 0.00949 µM, first compound 0.0316 µM): 89.4%
viability, T/C (second compound 0.00949 µM, first compound 0.1 µM): 95.6%
viability, T/C (second compound 0.00949 µM, first compound 0.316 µM): 92.9%
viability, T/C (second compound 0.00949 µM, first compound 1 µM): 99.1%
viability, T/C (second compound 0.03 µM, first compound 0.00316 µM): 86.8%
viability, T/C (second compound 0.03 µM, first compound 0.01 µM): 95%
viability, T/C (second compound 0.03 µM, first compound 0.0316 µM): 87%
viability, T/C (second compound 0.03 µM, first compound 0.1 µM): 99.4%
viability, T/C (second compound 0.03 µM, first compound 0.316 µM): 94.4%
viability, T/C (second compound 0.03 µM, first compound 1 µM): 92.1%
viability, T/C (second compound 0.0949 µM, first compound 0.00316 µM): 86.8%
viability, T/C (second compound 0.0949 µM, first compound 0.01 µM): 105%
viability, T/C (second compound 0.0949 µM, first compound 0.0316 µM): 99%
viability, T/C (second compound 0.0949 µM, first compound 0.1 µM): 101%
viability, T/C (second compound 0.0949 µM, first compound 0.316 µM): 101%
viability, T/C (second compound 0.0949 µM, first compound 1 µM): 96.4%
viability, T/C (second compound 0.3 µM, first compound 0.00316 µM): 93.4%
viability, T/C (second compound 0.3 µM, first compound 0.01 µM): 84.3%
viability, T/C (second compound 0.3 µM, first compound 0.0316 µM): 97.5%
viability, T/C (second compound 0.3 µM, first compound 0.1 µM): 91.2%
viability, T/C (second compound 0.3 µM, first compound 0.316 µM): 89.3%
viability, T/C (second compound 0.3 µM, first compound 1 µM): 87.4%
